A short description of this series: Log stability constants of ligands for metal ions (literature). The settings on record: Fe(III) minus Ca.

Consider one compound from patent US20050276862A1, “Iron sequestering antimicrobial composition” (priority 2004, published 2005).

From the text: A measure of the “affinity” of metal-ion sequestrants for various metal-ions is given by the stability constant (also often referred to as critical stability constants, complex formation constants, equilibrium constants, or formation constants) of that sequestrant for a given metal-ion. […] The ability of a specific molecule or ligand to sequester a metal-ion may depend also upon the pH, the concentrations of interfering ions, and the rate of complex formation (kinetics). Generally, however, the greater the stability constant, the greater the binding affinity for that particular metal-ion. Often the stability constants are expressed as the natural logarithm of the stability constant. Herein the stability constant for the reaction of a metal-ion (M) and a sequestrant or ligand (L) is defined as follows: M+n L⇄MLn
where the stability constant is βn=[MLn]/[M][L]^n, wherein [MLn] is the concentration of “complexed” metal-ion, [M] is the concentration of free (uncomplexed) metal-ion and [L] is the concentration of free ligand. The log of the stability constant is log βn, and n is the number of ligands which coordinate with the metal. It follows from the above equation that if βn is very large, the concentration of “free” metal-ion will be very low. […]

On to `O=C(O)CN(CCN(CC(=O)O)CC(=O)O)CCN(CC(=O)O)CC(=O)O` [DTPA, diethylenetriaminepentaacetic acid], for which the “difference between the log stability constants (specificity)” value was found to be 17.2.
